Assay results: patent publication US20240415791A1, “Therapeutic methods and compositions for treating cancer using devimistat and a fatty acid oxidation inhibitor, a tyrosine kinase inhibitor, a glutaminase inhibitor, and/or a glycolysis inhibitor” (Cornerstone Pharmaceuticals, Inc., priority 2021, published 2024)

How the values were obtained:
[1] = Oral bioavailability / plasma pharmacokinetics of devimistat formulations in mice; set-up: species or system BALB/c nude mice; conditions: mouse, in vivo
Experimental: […]; 5 mL/kg; Ex. 7A); (2) 5 μL/g IP injection of the triethanolamine/dextrose aqueous solution of Example 7 (25 mg/kg; 5 mL/kg; 7A); (3) 5 μL/g oral administration of the Eudragit L100 SDD suspension of Example 7 (100 mg/kg; 5 mL/kg; 7B); (4) 5 μL/g oral administration of the HPMCAS-M SDD suspension of Example 7 (100 mg/kg; 5 mL/kg; 7C); (5) 5 μL/g oral administration of the 20 mg/mL devimistat suspension of Example 7 (100 mg/kg; 5 mL/kg; 7D); or (6) 10 μL/g oral administration of the 10 mg/mL SOLUTOL solution of Example 7 (100 mg/kg; 10 mL/kg; 7E). In each experiment, about 80 μL of blood was collected from one subgroup of 4 male and 4 female mice at 0.083, 1, 4, and 24 hours after dosing, and from the other subgroup of 4 male and 4 female mice at 0.5, 2, and 8 hours. Plasma from the collected blood samples was analyzed by LC-MS/MS for the presence of devimistat.

PANC1 cells = test: Devimistat-induced cell death (ATP after recovery) in PANC1 cells; format: cell-based, human; conditions: exogenous nutrient-free conditions
Experimental: Cells were plated at 80% confluency in complete RPMI in black, clear bottom 96-well plates or 35-mm dishes for ATP, protein and glycogen analysis, or glass coverslips for fluorescence visualization. To create low nutritional conditions, cells were seeded in complete media, after 24 hours cells were transferred to serum free RPMI for 18-24 hours. Prior to drug treatment, cells were incubated in a nutrient-free carbonate buffered salt solution (CBS2) for 3 hours. Drug treatments were then carried out in CBS2 with addition of nutrient sources and/or chemical agents as described in the Examples and Figures.
LOGIC: High throughput, plate reader assays for cell death essentially always ultimately depend on metabolic activity of cells to identify viability, directly or indirectly. Thus, strong inhibition of metabolic activity by anti-metabolism agents like those described herein can confound cell death analysis by such assays. […] The inventors thus used a recovery-based assay wherein cells are treated with anti-metabolic agents under conditions where mitochondrial metabolism is (or becomes) limiting on viability. After experimental treatment, drug and media are removed and cells are allowed to recover in serum-free RPMI. RPMI provides high levels of glucose in support of glycolytic ATP generation (independently of mitochondrial function), allowing viable cells to recover ATP levels that are ultimately measured in the plate assay to score cell viability. Under these conditions, cells that are committed to execution of cell death by the experimental treatment score as dead and cells that have not committed to cell death recover ATP levels and score as viable.
Specifically, after exposure to the treatments indicated, cells are allowed to recover ([…]) in RPMI without serum. Survival is assessed by conventional luminescence measurement of ATP levels after this recovery.
TECHNICAL DETAILS: Immediately after drug treatments, acute ATP levels of cells in black, clear bottom 96-well plates were measured using the CellTiter-Glo® Luminescent Cell Viability Assay (catalog #G775B) following Promega (Madison, WI) protocols. To assess cell viability, after drug treatments, drug/agent-containing medium was replaced with serum-free RPMI and cells were incubated for an additional 17-24 hours to allow recovery of viable cells, without additional cell division. After this recovery period ATP levels were measured using the CellTiter-Glo® Luminescent Cell Viability Assay as described above.
A. Exogenous glucose protects from devimistat-induced cell death. Four different cell lines were exposed for 15 hours (PANC1, AsPC1, H460) or 8 hours (PC3) to the indicated range of devimistat doses in the absence of exogenous nutrients (in carbonate buffered balanced salts solution, CBS2) after 3 hours of preincubation in CBS2 (for cell adaptation and to equilibrate soluble nutrient pools). Cells were exposed to the treatments indicated, followed by recovery (24 hours) in RPMI without serum (providing nutrient support for viable cell recovery, without serum factors for cell division). Survival is assessed by conventional luminescence measurement of ATP levels after this recovery. […] The relatively large quantitative differences in devimistat sensitivity between cell lines under exogenous nutrient deprivation are characteristic of each line (see examples below), with small experiment-to-experiment variation. […]

[2] = system: BxPC3, PANC1, AsPC1 and H460 cells; test: 3H-2-deoxyglucose uptake by tumor cell lines; format: cell-based, human; conditions: 240 μM devimistat, complete RPMI, two hours
Experimental: Cells were treated in complete RPMI with devimistat (240 μM) for a total of 2 hours, with a pulse of 1,2-^3H 2-deoxyglucose at the end of this treatment for the times indicated in Example 1D and FIG. 1D. Cells were harvested, washed, and counted to asses uptake. More particularly, seeding, drug treatment, and 2DG uptake were all performed in RPMI medium supplemented with 10% FBS for BXPC3, H460 and PANC1 cells and DMEM+10% FBS for AsPC1. All treatments were done in triplicate. BxPC3 cells were seeded at 500,000 cells per 35-mm dish; H460, PANC1, and AsPC1 cells were plated in 6 well plates at 300,000 cells per well for PANC1 and at 500,000 cells per well for AsPC1 and H460. […]
At the end of the 2 hour drug treatment, plates were placed on ice, medium removed and plates were washed three times with ice cold medium without FBS. […] Lysates were transferred into scintillation vials containing 3 mL of scintillation cocktail and counted.
D. Pulse analysis of ^3H-2-deoxyglucose (2DG) uptake by tumor cell lines. ˜8×10^5 cells were treated with 240 μM devimistat or solvent control in complete RPMI for two hours and pulse labeled by addition of 0.5 μCi of ^3H-2DG for the final 0.25 or 1 hour of treatment as indicated in FIG. 1D. Cells were washed in ice-cold RPMI without serum, lysed, and counted (see Methods, above).

SMILES: O=C(O)CCCCC(CCSCc1ccccc1)SCc1ccccc1 (stereo not drawn) [devimistat, 6,8-bis(benzylsulfanyl)octanoic acid]
- oral bioavailability (in words) [1]: orally bioavailable
- sensitivity of PANC1 line to devimistat monotherapy (PANC1 cells): sensitive to devimistat monotherapy
- 3H-2-deoxyglucose (glucose) uptake [2]: accelerated glucose uptake
